The values that follow come from publication PMC12926254, “Novel pyrazole carboxylate derivatives as lonazolac bioisosteres with selective COX-2 inhibition: design, synthesis and anti-inflammatory activity” (Molecular Diversity, 2025).

Marks after values point to notes of the source that are not given here.

The target of one data set is T1, 15-LOX (Glycine max, UniProt P08170).
T1 construct: purchased Cayman Chemical 760,700
T1 sequence (P08170 1-839): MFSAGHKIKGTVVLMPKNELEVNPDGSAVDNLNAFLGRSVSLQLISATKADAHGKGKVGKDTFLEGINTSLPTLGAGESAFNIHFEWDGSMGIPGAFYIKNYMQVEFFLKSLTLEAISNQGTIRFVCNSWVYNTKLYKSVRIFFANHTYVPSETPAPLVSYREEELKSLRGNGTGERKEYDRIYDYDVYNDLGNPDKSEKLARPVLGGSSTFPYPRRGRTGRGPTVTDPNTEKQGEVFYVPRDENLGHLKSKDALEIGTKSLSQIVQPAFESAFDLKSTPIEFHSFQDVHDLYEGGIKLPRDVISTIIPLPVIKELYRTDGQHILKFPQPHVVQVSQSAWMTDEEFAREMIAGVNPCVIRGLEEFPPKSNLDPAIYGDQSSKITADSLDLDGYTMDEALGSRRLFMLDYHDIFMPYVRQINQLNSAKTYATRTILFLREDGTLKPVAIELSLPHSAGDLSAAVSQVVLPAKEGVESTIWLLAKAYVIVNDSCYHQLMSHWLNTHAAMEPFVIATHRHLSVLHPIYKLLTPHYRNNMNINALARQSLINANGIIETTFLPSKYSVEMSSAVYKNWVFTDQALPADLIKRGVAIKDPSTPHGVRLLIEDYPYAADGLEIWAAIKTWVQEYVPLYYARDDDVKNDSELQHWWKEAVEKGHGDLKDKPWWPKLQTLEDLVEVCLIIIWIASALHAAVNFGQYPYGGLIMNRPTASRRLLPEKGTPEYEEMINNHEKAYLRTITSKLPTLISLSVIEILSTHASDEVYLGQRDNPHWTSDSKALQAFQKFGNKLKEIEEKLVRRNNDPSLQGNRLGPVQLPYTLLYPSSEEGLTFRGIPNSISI
As to the kind of experiment: In vitro 15-LOX inhibition (Lipoxygenase Inhibitor Screening assay Kit 760700, Cayman). It is filed as biochemical. The conditions noted are these: mean of six values ± standard deviation. As for the experimental part:
15-LOX inhibitor screening protocol: Blank wells: 100 µl of assay buffer was added to at least two wells, Positive control wells: 90 µl of 15-LOX standard was added to 10 µl of assay buffer to at least two wells, 100% initial activity wells: 90 µl of Lipoxygenase enzyme was added to 10 µl of solvent to at least two wells, Inhibitor wells: 90 µl of Lipoxygenase enzyme was added to 10 µl of inhibitor wells to. It was incubated for five minutes at room temperature. The reaction was initiated by adding 10 µl of substrate to all the wells. 96well-plates were placed on a shaker for at least 10 min. 100 µl of chromogen was added to each well to stop the enzyme catalysis. The reaction was covered with plate cover. 96well-plates were placed on a shaker for at least 5 min. The cover was removed and absorbance was read using plate reader at absorbance 490–500 nm.

Another data set concerns iNOS. As to the kind of experiment: Inducible nitric oxide synthase (iNOS) inhibition in LPS-induced RAW 264.7 cells (ELISA). It is filed as cell-based. The conditions noted are these: Mus musculus, RAW264.7. The source says:
NO is produced from L-arginine by iNOS and is utilized in a variety of cell signaling processes. An inducible member of the NOS family, iNOS is increased during pro-inflammatory cytokine activity as a host-defense mechanism. A commercially available quantitative ELISA kit (ab253219 Mouse iNOS Simple Step ELISA® Kit) will be used to evaluate the iNOS enzyme activity of the substances in the cell lysate in accordance with the manufacturer’s instructions.
For orientation: An ELISA detects its analyte on a solid surface through an enzyme-linked reagent.

The nature of the next data set: MTS cytotoxicity assay. Format: cell-based. The conditions noted are these: mouse, RAW 264.7 macrophages (heading: LPS-induced), read-out: Cytotoxicity IC50 (LPS-induced RAW 264.7 cells). Here is the method: Using Dulbecco’s Modified Eagle Medium (DMEM, Biowest L0060) supplemented with 10% foetal bovine serum (FBS) (Biowest, S1810) and 1% anti-biotic and anti-mycotic (Biowest, L0010-100), the RAW264.7 macrophage cell line (ATCC ® TIB-71TM) was cultivated. The cells were then incubated at 37 °C with 5% CO2 until they were confluent, which should be between 70 and 80%. After two to three days, the growth media was regularly changed. Trypsin–EDTA was then used to wash and collect the cells (Biowest, L0931-500).
The MTS (3-(4,5-dimethylthiazol-2-yl)-5-(3-carboxymethoxy-phenyl)-2-(4-sulfophenyl)-2H-tetrazolium) test (Promega, ab197010) was used to determine cell viability. In short, a 96-well plate was seeded with 5 × 10^3 cells per well, and the cells were then incubated for 24 h at 37 °C and 5% CO2. The cells were then re-incubated for 24 h at 37 °C and 5% CO2 after the medium was discarded and replaced with 180 µl of fresh growth media and 20 µl of sample (1000 ug, 250 ug, 63 ug, 16 ug, and 4 ug µg/mL). 20 µl of MTS was then added to each well, and the mixture was incubated for three hours at 37 °C with 5% CO2. […] Control cells were those that received no treatment.

Data set [1] relates to carrageenan-induced rat paw edema. Put plainly: Carrageenan-induced rat paw edema assay. It is filed as in vivo. The conditions noted are these: for % inhibition (edema) / Paw edema % inhibition / Paw edema thickness ± SEM: 50 mg/kg; for Paw edema % inhibition / Paw edema thickness ± SEM: rat; for ED50: Rattus norvegicus, dose producing 50% edema inhibition. Here is the method: As previously described, paw thickness was evaluated at 1, 3, and 5 h following carrageenan injection at a dose of 50 mg/kg.

The next data set relates to gastric mucosa. As to the kind of experiment: Ulcerogenic liability (ulcer index). Format: in vivo. The conditions noted are these: 50 mg/kg orally, three successive days, rats. As for the experimental part:
[…]. […] Rats were divided into 7 groups and fasted for 18 h before drug administration. The control group received the vehicle (2.5% Tween 80). […] After 2 h, animals were fed. Rats were given the required dose orally for three successive days. After 2 h of the last dose, rats were sacrificed; the stomach of each rat was removed then opened along the greater curvature and rinsed with saline. In order to examine the stomach, it was stretched by pins on a corkboard. The gastric mucosa was carefully inspected for the occurrence of ulcers with the aid of an illuminated magnifying lens (l0x), then ulcer index was calculated according to the method described by Cho and Ogle. Lesions were counted and measured along the greater diameter using transparent ruler. Every five hemorrhagic spots were considered equivalent to 1 mm of ulcer. The ulcer index (mm) was calculated from the sum of the total length of ulcers and hemorrhagic spots in each stomach.

Data set [2] deals with carrageenan-induced rat paw edema. Put plainly: Carrageenan-induced rat paw edema assay. It is filed as in vivo. In general terms: Carrageenan injected into the paw causes an acute inflammation.
The subject of the next data set is TNF-α. As to the kind of experiment: TNF-α production in LPS-activated RAW 264.7 macrophages (ELISA). The conditions noted are these: Mus musculus, RAW264.7, read-out: TNF-α IC50.

The term IC50 denotes the midpoint of a concentration-inhibition curve. As a reminder, the ED50 is the dose that gives a 50% effect, or the effect in half of the subjects. A higher ED50 goes with weaker potency. `CCOC(=O)COc1ccc(C2=NN(c3ccc(S(C)(=O)=O)cc3)C(c3cc(OC)c(OC)c(OC)c3)C2)cc1` (stereo not drawn) [Compound 15d, Ethyl 2-(4-(1-(4-(methylsulfonyl)phenyl)-5-(3,4,5-trimethoxyphenyl)-4,5-dihydro-1H-pyrazol-3-yl)phenoxy)acetate]: the IC50 on 15-LOX came to 2230 ± 87 nM; in the data set with iNOS it was 531 ± 50 nM; in the data set on TNF-α, 1200 ± 60 nM. Moreover, the IC50 at 24 h in “MTS cytotoxicity assay” was determined as 183000 ± 6520 nM. Also, the “% inhibition (edema)” value in data set [1] was found to be 80.29%; in data set [2] (10 mg/kg) it was 29.52%; in data set [2] (25 mg/kg), 36.61%. The “Paw edema % inhibition” value in data set [1] (1 h after carrageenan) was 61.1%; in data set [1] (3 h after carrageenan), 41.9%; in data set [1] (5 h after carrageenan), 40%. Further, the “Paw edema thickness ± SEM” value in data set [1] (1 h after carrageenan) worked out at 2.23 ± 0.0045 mm; in data set [1] (3 h after carrageenan) it was 2.79 ± 0.011 mm; in data set [1] (5 h after carrageenan), 2.90 ± 0.002 mm. For the same compound, it took a dose of 31.2 mg/kg to reach the 50% effect level in data set [1] (ED50). Also, in the data set on gastric mucosa, the “% incidence /10” value came out at 2. Besides, the “Average no of ulcer” value with gastric mucosa is 0.47 ± 0.006^b. For the same compound, the Average severity in the data set with gastric mucosa is given as 0.51 ± 0.013^b.
For `CCOC(=O)COc1ccc(C2=NN(c3ccc(S(C)(=O)=O)cc3)C(c3ccc(Br)cc3)C2)cc1` (stereo not drawn) [Compound 15 h, Ethyl 2-(4-(5-(4-bromophenyl)-1-(4-(methylsulfonyl)phenyl)-4,5-dihydro-1H-pyrazol-3-yl)phenoxy)acetate], the figures for the IC50 on 15-LOX, with iNOS and in the data set with TNF-α were 488 ± 19 nM, 610 ± 130 nM and 1040 ± 42 nM, respectively. The IC50 at 24 h in the data set “MTS cytotoxicity assay” was 179000 ± 6370 nM. The results for the “% inhibition (edema)” value in data set [1], in data set [2] (10 mg/kg) and in data set [2] (25 mg/kg) were 82.28%, 19.49% and 37.98%, respectively. Further, the “Paw edema % inhibition” value in data set [1] (1 h after carrageenan) is given as 54.85%; in data set [1] (3 h after carrageenan), 55.9%; in data set [1] (5 h after carrageenan), 59.3%. Also, the “Paw edema thickness ± SEM” value in data set [1] (1 h after carrageenan) came out at 2.57 ± 0.0071 mm; in data set [1] (3 h after carrageenan) it was 2.61 ± 0.018 mm; in data set [1] (5 h after carrageenan), 2.44 ± 0.0099 mm. In addition, the ED50 in data set [1] was 29.9 mg/kg. Moreover, the “% incidence /10” value in the data set with gastric mucosa is 2. Moreover, the “Average no of ulcer” value in the data set with gastric mucosa was 0.40 ± 0.006^b. For the same compound, the Average severity in the data set on gastric mucosa is reported as 0.29 ± 0.009***^b.
`CCOC(=O)COc1ccc(C2=NN(c3ccc(S(C)(=O)=O)cc3)C(c3ccc(OC)cc3)C2)cc1` (stereo not drawn) [Compound 15c, Ethyl 2-(4-(5-(4-methoxyphenyl)-1-(4-(methylsulfonyl)phenyl)-4,5-dihydro-1H-pyrazol-3-yl)phenoxy)acetate]: the results for the IC50 at 15-LOX, with iNOS and in the data set with TNF-α were 412 ± 16 nM, 410 ± 60 nM and 770 ± 25 nM, respectively. Moreover, in “MTS cytotoxicity assay”, the IC50 at 24 h worked out at 301000 ± 10700 nM. Further, the “% inhibition (edema)” value worked out at 70.02% in data set [1], 22.32% in data set [2] (10 mg/kg) and 31.51% in data set [2] (25 mg/kg). The entries for the “Paw edema % inhibition” value in data set [1] (1 h after carrageenan), in data set [1] (3 h after carrageenan) and in data set [1] (5 h after carrageenan) were 38.3%, 55% and 66.1%, respectively. The figures for the “Paw edema thickness ± SEM” value in data set [1] (1 h after carrageenan), in data set [1] (3 h after carrageenan) and in data set [1] (5 h after carrageenan) were 3.1 ± 0.002 mm, 2.56 ± 0.0034 mm and 2.1 ± 0.0084 mm, respectively. The compound also came in with an ED50 in data set [1] of 24.1 mg/kg. Moreover, the “% incidence /10” value with gastric mucosa turned out to be 2. In addition, the “Average no of ulcer” value in the data set on gastric mucosa was 0.55 ± 0.012***^b. The Average severity with gastric mucosa is 0.17 ± 0.004***^b.
